Patent publication US20020164346A1, “Altered peptide ligands” (priority 2001, published 2002)

Tested on: normal donor HLA-A2+ T cells
Assay: In vitro T cell education with peptide-pulsed autologous dendritic cells; lysis of 51Cr-labeled peptide-pulsed T2 cells
Assay type: cell-based, human
From the text: Normal donor aphoresis products were obtained from Dana-Farber Cancer Research Institute (Boston, Mass.). PBMC were isolated by centrifugation over Ficoll (Nycomed, Oslo, Norway). CD8^+ T cells were isolated using magnetic beads (Dynal, Oslo, Norway) according to the manufacturers instructions. To generate autologous dendritic cells, monocytes were isolated from the PBMC and treated with GM-CSF (Immunex, Seattle, Wash.) and IL-4 (PeproTech, London, England) for 6 days as previously described. One day prior to establishing the T cell/DC cocultures, the DCs were pulsed with peptides (10 μg/ml) overnight followed by the addition of the previously isolated CD8+ T cells at a T:DC of 10:1. Cultures were restimulated with peptide-pulsed DCs. IL-2 (50 IU/ml) was introduced on day 8 and added every 3-4 days as needed. The bulk cultures were assayed one week after the fifth restimulation. Peptide-pulsed T2 cell targets were prepared as described above and adenovirus-infected target cells were allowed to incubate with the viruses for 48 hours at the indicated MOI prior to being used in the CTL assay. […]
Altered peptides give rise to T cells that recognize the native epitope. […] All data points represent the average of 4 replicates and background lysis, as determined using T2 cells pulsed with equivalent amounts of DMSO containing no peptide, was subtracted out.

Substance: native gp100 peptide ligand: native (wild-type) gp100209-217 peptide epitope of the human melanoma antigen gp100
- ability of peptide-educated T cells to lyse targets displaying the native antigen/ligand (T cells from normal (healthy) donors educated with the peptide): generally inefficient
- eliciting reactive T cells (lysis of T2 cells pulsed with native peptide) (after 5 weekly stimulations, bulk T cell cultures, FIG. 3): relatively poor
